Toxic doses and inconclusive results are not listed. No stated cut-off is given here; in the data, active means T/C of 150% or more; inactive means T/C below 125%.
Tested on: L1210 leukemia ip in BDF1 mice, survival T/C
Test: NCI In Vivo Anticancer Drug Screen. Data for tumor model L1210 Leukemia (intraperitoneal) in B6D2F1 (BDF1) mice
Details: endpoint: mean survival time, higher = longer survival
In short: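 Each compound was tested against a transplantable tumor grown in mice. The endpoint was survival, with treated animals benchmarked against vehicle controls as a simple ratio.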

[1] = dose: 100.0 mg/kg/injection, schedule: Q04DX003 (ip), vehicle: saline
[2] = dose: 200.0 mg/kg/injection, schedule: Q04DX003 (ip), vehicle: saline
[3] = dose: 400.0 mg/kg/injection, schedule: Q04DX003 (ip), vehicle: saline
[4] = dose: 100.0 mg/kg/injection, schedule: Q01DX001 (ip), vehicle: saline
[5] = dose: 200.0 mg/kg/injection, schedule: Q01DX001 (ip), vehicle: saline
[6] = dose: 400.0 mg/kg/injection, schedule: Q01DX001 (ip), vehicle: saline
[7] = dose: 100.0 mg/kg/injection, schedule: Q04DX003 (ip), vehicle: Klucel (hydroxypropylcellulose) (HPC)
[8] = dose: 200.0 mg/kg/injection, schedule: Q04DX003 (ip), vehicle: Klucel (hydroxypropylcellulose) (HPC)
[9] = dose: 400.0 mg/kg/injection, schedule: Q04DX003 (ip), vehicle: Klucel (hydroxypropylcellulose) (HPC)
[10] = dose: 100.0 mg/kg/injection, schedule: Q01DX009 (ip), vehicle: Klucel (hydroxypropylcellulose) (HPC)
[11] = dose: 200.0 mg/kg/injection, schedule: Q01DX009 (ip), vehicle: Klucel (hydroxypropylcellulose) (HPC)
[12] = dose: 400.0 mg/kg/injection, schedule: Q01DX009 (ip), vehicle: Klucel (hydroxypropylcellulose) (HPC)
[13] = dose: 100.0 mg/kg/injection, schedule: Q04DX003 (ip), vehicle: saline with Tween-80
[14] = dose: 200.0 mg/kg/injection, schedule: Q04DX003 (ip), vehicle: saline with Tween-80
[15] = dose: 400.0 mg/kg/injection, schedule: Q04DX003 (ip), vehicle: saline with Tween-80

Measured: T/C

CC1(C(=O)O)C2CCC(C2)C1C(=O)O (stereo not drawn)
inactive: [1] 107 % of control | [2] 102 % of control | [3] 105 % of control

Cc1cc2c(cc1C)N(C(=O)CCl)CCN2C(=O)CCl
inactive: dose: 5.0 mg/kg/injection, schedule: Q01DX Z (ip), vehicle: carboxymethylcellulose (CMC) 97 % of control | dose: 10.0 mg/kg/injection, schedule: Q01DX Z (ip), vehicle: carboxymethylcellulose (CMC) 105 % of control | dose: 20.0 mg/kg/injection, schedule: Q01DX Z (ip), vehicle: carboxymethylcellulose (CMC) 100 % of control | [4] 104 % of control | [5] 98 % of control | [6] 98 % of control

c1cc2nnc3cccc4nnc(c1)c2c34
inactive: [4] 102 % of control | [5] 107 % of control | [6] 103 % of control

CCCC(C)c1c(N)nc(N)[nH]c1=O (stereo not drawn)
inactive: dose: 80.0 mg/kg/injection, schedule: Q01DX001 (ip), vehicle: Klucel (hydroxypropylcellulose) (HPC) 103 % of control | dose: 160.0 mg/kg/injection, schedule: Q01DX001 (ip), vehicle: Klucel (hydroxypropylcellulose) (HPC) 92 % of control | dose: 320.0 mg/kg/injection, schedule: Q01DX001 (ip), vehicle: Klucel (hydroxypropylcellulose) (HPC) 94 % of control

CCOC(=O)Nc1ccccc1C
inactive: [7] 95 % of control | [8] 100 % of control | dose: 222.0 mg/kg/injection, schedule: Q01DX Z (ip), vehicle: methylcellulose (MC) 101 % of control | dose: 333.0 mg/kg/injection, schedule: Q01DX Z (ip), vehicle: methylcellulose (MC) 101 % of control | [9] 94 % of control

O=[N+]([O-])c1ccc(Oc2ccc(S(=O)(=O)c3ccc(Oc4ccc([N+](=O)[O-])cc4)c([N+](=O)[O-])c3)cc2[N+](=O)[O-])cc1
inactive: dose: 100.0 mg/kg/injection, schedule: Q01DX005 (ip), vehicle: Klucel (hydroxypropylcellulose) (HPC) 101 % of control | [10] 102 % of control | dose: 100.0 mg/kg/injection, schedule: Q04DX002 (ip), vehicle: Klucel (hydroxypropylcellulose) (HPC) 110 % of control | dose: 200.0 mg/kg/injection, schedule: Q01DX005 (ip), vehicle: Klucel (hydroxypropylcellulose) (HPC) 97 % of control | [11] 102 % of control | dose: 200.0 mg/kg/injection, schedule: Q04DX002 (ip), vehicle: Klucel (hydroxypropylcellulose) (HPC) 96 % of control | dose: 400.0 mg/kg/injection, schedule: Q01DX005 (ip), vehicle: Klucel (hydroxypropylcellulose) (HPC) 90 % of control | [12] 98 % of control | dose: 400.0 mg/kg/injection, schedule: Q04DX002 (ip), vehicle: Klucel (hydroxypropylcellulose) (HPC) 100 % of control

C1=CN2CC(c3ccccc3)=NNC2c2ccccc21 (stereo not drawn)
inactive: dose: 100.0 mg/kg/injection, schedule: Q04DX003 (ip), vehicle: alcohol 107 % of control | [1] 97 % of control | [2] 97 % of control

Cc1noc(C)c1CC1(Cc2c(C)noc2C)C(=O)CCC2(C)CCCC=C21 (stereo not drawn)
inactive: [10] 92 % of control | [7] 95 % of control | [11] 98 % of control | [8] 93 % of control | [12] 97 % of control | [9] 96 % of control

COC(=O)C1C2OC3C(OC(=O)C31)C2Br (stereo not drawn)
inactive: [7] 91 % of control | [8] 96 % of control | [9] 102 % of control

COc1cc(C)c2ccccc2n1
inactive: dose: 100.0 mg/kg/injection, schedule: Q01DX001 (ip), vehicle: saline with Tween-80 100 % of control | [4] 104 % of control | dose: 200.0 mg/kg/injection, schedule: Q01DX001 (ip), vehicle: saline with Tween-80 102 % of control | [5] 103 % of control | dose: 400.0 mg/kg/injection, schedule: Q01DX001 (ip), vehicle: saline with Tween-80 94 % of control | [6] 98 % of control

O=[N+]([O-])c1ccccc1/C=C/C=N/N=C/c1ccccc1O
inactive: dose: 75.0 mg/kg/injection, schedule: Q01DX001 (ip), vehicle: other 94 % of control | dose: 150.0 mg/kg/injection, schedule: Q01DX001 (ip), vehicle: other 95 % of control | dose: 300.0 mg/kg/injection, schedule: Q01DX001 (ip), vehicle: other 88 % of control

CC(=O)CC(=O)Nc1ccc(N=Nc2ccccc2)cc1
inactive: [13] 93 % of control | [14] 91 % of control | [15] 91 % of control

COc1cc(/C=C2\SC(=O)NC2=O)ccc1O
inactive: dose: 12.5 mg/kg/injection, schedule: Q01DX009 (ip), vehicle: saline with Tween-80 106 % of control | dose: 25.0 mg/kg/injection, schedule: Q01DX009 (ip), vehicle: saline with Tween-80 101 % of control | dose: 150.0 mg/kg/injection, schedule: Q01DX009 (ip), vehicle: saline with Tween-80 101 % of control

O=C(COc1ccc(Cl)c(Cl)c1)Nc1ccc[n+](Cc2cccc(S(=O)(=O)F)c2)c1
inactive: dose: 100.0 mg/kg/injection, schedule: Q01DX001 (ip), vehicle: Klucel (hydroxypropylcellulose) (HPC) 96 % of control | dose: 200.0 mg/kg/injection, schedule: Q01DX001 (ip), vehicle: Klucel (hydroxypropylcellulose) (HPC) 97 % of control

O=C1CNC(=O)N1
inactive: dose: 50.0 mg/kg/injection, schedule: Q01DX009 (ip), vehicle: saline 105 % of control | dose: 100.0 mg/kg/injection, schedule: Q01DX009 (ip), vehicle: saline 107 % of control | [1] 94 % of control | dose: 200.0 mg/kg/injection, schedule: Q01DX009 (ip), vehicle: saline 96 % of control | [2] 100 % of control | dose: 400.0 mg/kg/injection, schedule: Q01DX009 (ip), vehicle: saline 96 % of control | [3] 98 % of control

O=C1Nc2ccccc2/C1=N/N=C/c1cc(Cl)cc(Cl)c1O
inactive: dose: 100.0 mg/kg/injection, schedule: Q01DX009 (ip), vehicle: saline with Tween-80 90 % of control | [13] 90 % of control | dose: 200.0 mg/kg/injection, schedule: Q01DX009 (ip), vehicle: saline with Tween-80 92 % of control | [14] 90 % of control | dose: 400.0 mg/kg/injection, schedule: Q01DX009 (ip), vehicle: saline with Tween-80 91 % of control | [15] 91 % of control

Cc1cc(C)c(CC(=N)c2ccccc2)c(C)c1
inactive: dose: 100.0 mg/kg/injection, schedule: Q01DX001 (ip), vehicle: acetone 96 % of control | dose: 200.0 mg/kg/injection, schedule: Q01DX001 (ip), vehicle: acetone 94 % of control | dose: 400.0 mg/kg/injection, schedule: Q01DX001 (ip), vehicle: acetone 88 % of control

CCN(CC)CC(N)=O
inactive: [1] 103 % of control | [2] 103 % of control | [3] 111 % of control

O=C(O)CNC(=O)c1cccc(Cl)c1
inactive: dose: 100.0 mg/kg/injection, schedule: Q04DX002 (ip), vehicle: saline with Tween-80 95 % of control | dose: 200.0 mg/kg/injection, schedule: Q04DX002 (ip), vehicle: saline with Tween-80 95 % of control | dose: 400.0 mg/kg/injection, schedule: Q04DX002 (ip), vehicle: saline with Tween-80 95 % of control

COC(=O)C1=C(C(=O)OC)C2(OC(C)=O)C=C(OC(C)=O)C1C(C)(C)C2 (stereo not drawn)
inactive: [4] 94 % of control | dose: 100.0 mg/kg/injection, schedule: Q01DX009 (ip), vehicle: acetone 93 % of control | [1] 111 % of control | [5] 102 % of control | dose: 200.0 mg/kg/injection, schedule: Q01DX009 (ip), vehicle: acetone 90 % of control | [2] 103 % of control | [6] 102 % of control | dose: 400.0 mg/kg/injection, schedule: Q01DX009 (ip), vehicle: acetone 88 % of control | [3] 104 % of control

Clc1ccc(Cl)nc1
inactive: [10] 103 % of control | [7] 98 % of control | [11] 93 % of control | [8] 98 % of control | [12] 103 % of control | [9] 88 % of control

CN1CCCCC1CCN1c2ccccc2Sc2ccc(Br)cc21 (stereo not drawn)
inactive: dose: 3.12 mg/kg/injection, schedule: Q01DX009 (ip), vehicle: saline 105 % of control | dose: 6.25 mg/kg/injection, schedule: Q01DX009 (ip), vehicle: saline 100 % of control | dose: 12.5 mg/kg/injection, schedule: Q01DX009 (ip), vehicle: saline 101 % of control

FC(F)OC(F)(F)C(F)Cl (stereo not drawn)
inactive: [4] 89 % of control | [5] 89 % of control | [6] 97 % of control

CC(C)OC(=O)Oc1cccc2c1C(=O)c1ccccc1C2=O
inactive: [10] 91 % of control | [7] 97 % of control | [11] 91 % of control | [8] 93 % of control | [9] 104 % of control

NS(=O)(=O)c1ccc(S(=O)(=O)N2CCCCC2)cc1
inactive: [10] 90 % of control | [11] 96 % of control

— PubChem BioAssay AID248 (DTP/NCI, 2004)
